Reference: patent publication US20070155802A1, “Fungicide composition comprising an arylamidine derivative and known fungicide compounds” (priority 2004, published 2007)

What was measured:
[1] = tested on: Wheat Leaf-spot (Septoria tritici or Mycosphaerella graminicola); assay: Open field trial on wheat, wheat leaf-spot, natural contamination; type: in vivo; settings: 30 days after application 2, BBCH73
Method: (§1) They are intended to give an illustration of the efficacy of the composition according to the invention on several cereal diseases, in particular a composition combining compound (A), having as chemical name N-ethyl-N-methyl-N′-[4-(chloro-3-trifluoromethylphenoxy)-2,5-xylyl]formamidine, with a fungicide compound of the triazole type, namely prothioconazole. The trials on cereals were carried out in an open field.
(§2) The objective of these field trials is therefore to test the efficacy of compounds (A), alone at 100 g/ha; 125 g/ha and 150 g/ha in combination with prothioconazole at 150 g a.i./ha; representing a class of fungicide compounds. Powdery mildew (Erysiphe graminis or blumeria graminis) and Septoria diseases (Mycosphaerella graminicola or Septoria tritici) are the principal diseases treated.
(§3) The products tested are therefore • N-ethyl-N-methyl-N′-[4-(chloro-3-trifluorométhylphénoxy)-2,5-xylyl]-formamidine as compound (A) at 100 g/ha; 125 g/ha and 150 g/ha as an EC type formulation at 150 g/l; • prothioconazole as compound (B) at 150 g/ha as a formulation at 250 g/l; • compound (A) and prothioconazole combination at 100+150 g/ha as a fresh preparation; • compound (A) and prothioconazole combination at 125+150 g/ha as a fresh preparation; • compound (A) and prothioconazole combination at 150+150 g/ha as a fresh preparation; • the reference product is a mixture of epoxyconazole and pyraclostrobin (Opera® 1,51/ha recommended on Septoria tritici).
(§4) Each trial comprises 3 repeats.
(§5) Untreated control plots are included in the experimental design in order to measure the severity of the diseases.
The trials were conducted under natural contamination conditions. The equipment for application of the different active ingredients is a constant compressed air pressure back sprayer. The spray nozzles have slits.
The efficacy results were obtained from controls carried out in the field by overall evaluation of the percentage infestation.
The results were measured 30 days after the second application and are presented in table 3; for Septoria tritici, assessment 30 days after application 2 at stage BBCH73 by observations of Flag leaf-Flag-1-Flag-2.

[2] = tested on: Wheat Powdery Mildew (Erysiphe graminis or blumeria graminis); assay: Open field trial on wheat, wheat powdery mildew, natural contamination; type: in vivo; settings: 20 days after application 2, BBCH73
Method: as §1, §2, §3, §4, §5
The trials were conducted under natural contamination conditions. The equipment for application of the different active ingredients is a constant compressed air pressure back sprayer. The spray nozzles have slits. […]
The results were measured 20 days after the second application of the products onto wheat and are presented in table 2; for Erysiphe graminis, assessment 20 days after application 2 at stage BBCH73 by observations of Flag leaf-Flag-1-Flag-2.

Row | SMILES | % Efficacy observed (X) ([1]; 100 g ai/Ha) | % Efficacy observed (X) ([1]; 125 g ai/Ha) | % Efficacy observed (X) ([1]; 150 g ai/Ha) | % Efficacy observed (X) ([2]; 125 g ai/Ha) | % Efficacy observed (X) ([2]; 150 g ai/Ha)
1 | CCN(C)C=Nc1cc(C)c(Oc2ccc(Cl)c(C(F)(F)F)c2)cc1C [Compound A] | 17% | 19% | 24% | 16% | 14%
2 | OC(Cc1ccccc1Cl)(Cn1nc[nH]c1=S)C1(Cl)CC1 (stereo not shown) [prothioconazole, reference compound] |  |  | 69% |  | 71%
